{"source": "paper PMC6053381", "about": "“Novel 2-phenyloxypyrimidine derivative induces apoptosis and autophagy via inhibiting PI3K pathway and activating MAPK/ERK signaling in hepatocellular carcinoma cells” (Scientific Reports, 2018)", "key": {"Bel7404 cells [1]": {"test_system": "Bel7404 cells", "experiment": "MTT cell viability assay", "assay_type": "cell-based", "settings": "Homo sapiens", "description": "(§1) To reconfirm the biological activity, we chose the most sensitive cell line Bel7404 from cellular assay and the widely used and the most characterized cell line HepG2 to examine the effects of E5 on cell proliferation by MTT assay. […] Given that cell cycle arrest plays a significant role in inhibiting cancer cell growth, we subsequently examined the effects of E5 on cell cycle distribution of Bel7404 and HepG2 cells.\n(§2) Cell viability was measured by methyl thiazolyl tetrazolium (MTT) assay. Cells were seeded in 96-well plate at a density of 1 × 10^4 cells/well. After overnight incubation, solution of E5 in DMSO with incremental concentrations (0–30 μM) were added to the cells and further incubated for 3 days. During this period, three wells were selected from each group of cells every day for the MTT (50 μg/well) assay. After the cells had been incubated at 37 °C for 4 h, the reaction was stopped by adding 150 μL/well of DMSO, and incubating for 10 min. The absorbance was measured at a wavelength of 490 nm by a Microplate Reader (BioTek, USA)."}, "HepG2 cells [2]": {"test_system": "HepG2 cells", "experiment": "MTT cell viability assay", "assay_type": "cell-based", "settings": "Homo sapiens", "description": "as §1, §2"}, "PDGFRα": {"molecular_target": "PDGFRα (Homo sapiens, UniProt P16234)", "sequence (P16234 24-1089)": "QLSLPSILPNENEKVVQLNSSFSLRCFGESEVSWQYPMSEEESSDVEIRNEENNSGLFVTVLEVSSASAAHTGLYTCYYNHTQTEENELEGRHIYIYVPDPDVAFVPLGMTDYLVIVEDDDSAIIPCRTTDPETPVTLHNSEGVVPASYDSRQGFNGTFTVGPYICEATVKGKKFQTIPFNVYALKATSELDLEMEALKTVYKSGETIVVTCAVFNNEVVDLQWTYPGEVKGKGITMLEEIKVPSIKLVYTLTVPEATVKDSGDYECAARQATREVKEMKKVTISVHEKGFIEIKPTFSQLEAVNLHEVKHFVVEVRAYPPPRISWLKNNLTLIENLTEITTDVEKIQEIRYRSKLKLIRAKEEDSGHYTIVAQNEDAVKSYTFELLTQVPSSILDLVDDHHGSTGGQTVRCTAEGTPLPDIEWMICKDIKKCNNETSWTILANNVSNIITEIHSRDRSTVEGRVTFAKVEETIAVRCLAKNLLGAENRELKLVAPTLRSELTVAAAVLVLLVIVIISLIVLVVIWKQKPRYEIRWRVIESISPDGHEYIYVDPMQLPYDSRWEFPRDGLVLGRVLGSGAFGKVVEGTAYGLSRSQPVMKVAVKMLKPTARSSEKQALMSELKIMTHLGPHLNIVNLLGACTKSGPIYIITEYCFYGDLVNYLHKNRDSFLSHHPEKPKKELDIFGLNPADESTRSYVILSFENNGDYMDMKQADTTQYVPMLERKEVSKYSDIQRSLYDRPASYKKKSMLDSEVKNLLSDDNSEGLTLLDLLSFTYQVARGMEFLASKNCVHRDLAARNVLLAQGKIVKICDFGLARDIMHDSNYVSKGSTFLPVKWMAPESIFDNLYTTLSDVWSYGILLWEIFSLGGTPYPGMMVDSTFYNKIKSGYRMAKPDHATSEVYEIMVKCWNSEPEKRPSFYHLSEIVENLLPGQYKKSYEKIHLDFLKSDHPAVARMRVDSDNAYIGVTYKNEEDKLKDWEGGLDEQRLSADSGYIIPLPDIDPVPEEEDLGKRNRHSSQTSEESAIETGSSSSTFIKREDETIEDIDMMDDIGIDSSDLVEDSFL", "experiment": "PDGFR kinase assay, Caliper microfluidic mobility shift", "assay_type": "biochemical"}, "PDGFRβ": {"molecular_target": "PDGFRβ (Homo sapiens, UniProt P09619)", "sequence (P09619 33-1106)": "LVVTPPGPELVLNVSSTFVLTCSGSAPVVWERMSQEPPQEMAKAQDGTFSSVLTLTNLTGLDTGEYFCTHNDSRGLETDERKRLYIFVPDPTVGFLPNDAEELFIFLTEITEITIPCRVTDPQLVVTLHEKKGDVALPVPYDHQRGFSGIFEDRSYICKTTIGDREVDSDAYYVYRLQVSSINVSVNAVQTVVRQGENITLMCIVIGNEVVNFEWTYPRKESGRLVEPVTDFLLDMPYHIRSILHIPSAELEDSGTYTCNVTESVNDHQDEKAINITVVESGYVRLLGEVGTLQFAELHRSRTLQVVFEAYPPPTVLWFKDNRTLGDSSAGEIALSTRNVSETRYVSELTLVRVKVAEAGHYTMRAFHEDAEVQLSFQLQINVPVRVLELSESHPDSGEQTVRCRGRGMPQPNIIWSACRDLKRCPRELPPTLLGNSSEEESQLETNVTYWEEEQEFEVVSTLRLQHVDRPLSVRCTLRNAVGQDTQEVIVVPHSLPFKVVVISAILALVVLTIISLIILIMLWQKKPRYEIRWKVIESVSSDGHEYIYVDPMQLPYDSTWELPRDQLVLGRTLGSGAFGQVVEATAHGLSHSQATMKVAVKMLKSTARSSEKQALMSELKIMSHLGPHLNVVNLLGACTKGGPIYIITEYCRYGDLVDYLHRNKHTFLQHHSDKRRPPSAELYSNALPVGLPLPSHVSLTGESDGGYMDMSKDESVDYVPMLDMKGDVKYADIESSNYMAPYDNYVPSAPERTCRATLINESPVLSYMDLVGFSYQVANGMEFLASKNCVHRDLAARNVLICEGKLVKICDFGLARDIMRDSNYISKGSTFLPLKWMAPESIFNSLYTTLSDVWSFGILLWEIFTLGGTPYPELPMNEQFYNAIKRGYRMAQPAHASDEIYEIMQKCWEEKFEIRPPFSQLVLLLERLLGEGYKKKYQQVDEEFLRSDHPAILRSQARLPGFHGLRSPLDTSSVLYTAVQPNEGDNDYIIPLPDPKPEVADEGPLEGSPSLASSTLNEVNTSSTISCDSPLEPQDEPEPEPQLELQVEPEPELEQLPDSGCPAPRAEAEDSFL", "experiment": "PDGFR kinase assay, Caliper microfluidic mobility shift", "assay_type": "biochemical", "settings": "averages of two separate experiments"}, "Bel7404 cells [3]": {"test_system": "Bel7404 cells", "experiment": "Cell cycle distribution by flow cytometry (PI)", "assay_type": "cell-based", "settings": "24 h treatment", "description": "(§3) Cells were incubated with E5 for 24 h, after which cells were washed, stained and subjected to flow cytometry analysis. The cell cycle was analyzed by staining with propidium iodide (PI), and the extent of cell death/apoptosis was evaluated by double staining with annexin V-FITC and PI. The fluorescence was measured with a FACScan flow cytometer (Becton Dickinson, USA)."}, "HepG2 cells [4]": {"test_system": "HepG2 cells", "experiment": "Cell cycle distribution by flow cytometry (PI)", "assay_type": "cell-based", "settings": "24 h treatment", "description": "as §3"}, "LCK": {"molecular_target": "LCK (Homo sapiens, UniProt P06239)", "experiment": "Kinase profiling (Kinase-Glo Plus or ADP-Glo)", "assay_type": "biochemical", "settings": "averages of two separate experiments", "description": "(§4) To better characterize kinase inhibition, the ability of E5 to inhibit a panel of purified kinases was assessed.\n(§5) PDGFR kinase activity was measured using Caliper microfluidic mobility shift technology. Briefly, 2 μL compound solution (25 μM) in 25% DMSO per well were added into the 384 well microtiter plates. Then, 10 μL per well of enzyme solution (100 mM HEPES, 10 mM MgCl2, Brij35 (30%) 100 μL, 1 mM DTT, 20 ng enzyme) was added. After a brief centrifugation at 1,000 rpm, the kinase reactions were started by addition of 38 μL per well of peptide/ATP-solution (40 μM ATP, 6.5 μM peptide 5′-FAM-KKKKEEIYFFF-NH2, Tris-HCl buffer, pH 7.0) incubated at 30 °C for 60 min and stopped by the addition of 20 μL 35 mM EDTA per well. The electrophoretic separation of the phosphorylated and non-phosphorylated peptides was then carried out on LabChip EZ Reader II (Caliper Life Sciences). All other kinase reactions were carried out as previously reported using the Kinase-Glo Plus or ADP-Glo assay. Kinase inhibition rates were calculated per manufacturer’s instructions."}, "BLK": {"molecular_target": "BLK (Homo sapiens, UniProt P51451)", "experiment": "Kinase profiling (Kinase-Glo Plus or ADP-Glo)", "assay_type": "biochemical", "settings": "averages of two separate experiments", "description": "as §4, §5"}, "B-raf": {"molecular_target": "B-raf (Homo sapiens, UniProt P15056)", "experiment": "Kinase profiling (Kinase-Glo Plus or ADP-Glo)", "assay_type": "biochemical", "settings": "averages of two separate experiments", "description": "as §4, §5"}, "ABL1": {"molecular_target": "ABL1 (Homo sapiens, UniProt P00519)", "experiment": "Kinase profiling (Kinase-Glo Plus or ADP-Glo)", "assay_type": "biochemical", "settings": "averages of two separate experiments", "description": "as §4, §5"}, "FGFR1": {"molecular_target": "FGFR1 (Homo sapiens, UniProt P11362)", "experiment": "Kinase profiling (Kinase-Glo Plus or ADP-Glo)", "assay_type": "biochemical", "settings": "averages of two separate experiments", "description": "as §4, §5"}, "Raf-1": {"molecular_target": "Raf-1 (Homo sapiens, UniProt P04049)", "sequence (P04049 whole entry, species assumed)": "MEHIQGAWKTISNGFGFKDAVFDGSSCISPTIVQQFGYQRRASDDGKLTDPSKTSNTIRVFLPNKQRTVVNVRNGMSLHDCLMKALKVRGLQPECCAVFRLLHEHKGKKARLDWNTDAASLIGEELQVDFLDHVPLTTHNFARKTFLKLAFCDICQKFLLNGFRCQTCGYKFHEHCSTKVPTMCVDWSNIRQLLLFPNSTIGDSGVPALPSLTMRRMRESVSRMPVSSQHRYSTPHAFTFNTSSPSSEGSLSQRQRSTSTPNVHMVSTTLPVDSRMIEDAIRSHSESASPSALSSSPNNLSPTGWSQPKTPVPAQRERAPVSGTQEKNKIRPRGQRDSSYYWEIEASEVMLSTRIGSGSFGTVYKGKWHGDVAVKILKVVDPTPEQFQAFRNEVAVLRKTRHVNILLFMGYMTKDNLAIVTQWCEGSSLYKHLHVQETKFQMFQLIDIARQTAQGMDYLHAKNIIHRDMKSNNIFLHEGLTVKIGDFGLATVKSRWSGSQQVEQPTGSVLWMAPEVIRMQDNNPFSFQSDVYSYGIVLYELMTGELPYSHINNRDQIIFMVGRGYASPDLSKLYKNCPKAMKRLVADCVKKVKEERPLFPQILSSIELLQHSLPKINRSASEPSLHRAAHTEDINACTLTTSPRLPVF", "experiment": "Kinase profiling (Kinase-Glo Plus or ADP-Glo)", "assay_type": "biochemical", "settings": "averages of two separate experiments", "description": "as §4, §5"}, "FGFR2": {"molecular_target": "FGFR2 (Homo sapiens, UniProt P21802)", "experiment": "Kinase profiling (Kinase-Glo Plus or ADP-Glo)", "assay_type": "biochemical", "settings": "averages of two separate experiments", "description": "as §4, §5"}, "FLT3": {"molecular_target": "FLT3 (Homo sapiens, UniProt P36888)", "sequence (P36888 27-993, species assumed)": "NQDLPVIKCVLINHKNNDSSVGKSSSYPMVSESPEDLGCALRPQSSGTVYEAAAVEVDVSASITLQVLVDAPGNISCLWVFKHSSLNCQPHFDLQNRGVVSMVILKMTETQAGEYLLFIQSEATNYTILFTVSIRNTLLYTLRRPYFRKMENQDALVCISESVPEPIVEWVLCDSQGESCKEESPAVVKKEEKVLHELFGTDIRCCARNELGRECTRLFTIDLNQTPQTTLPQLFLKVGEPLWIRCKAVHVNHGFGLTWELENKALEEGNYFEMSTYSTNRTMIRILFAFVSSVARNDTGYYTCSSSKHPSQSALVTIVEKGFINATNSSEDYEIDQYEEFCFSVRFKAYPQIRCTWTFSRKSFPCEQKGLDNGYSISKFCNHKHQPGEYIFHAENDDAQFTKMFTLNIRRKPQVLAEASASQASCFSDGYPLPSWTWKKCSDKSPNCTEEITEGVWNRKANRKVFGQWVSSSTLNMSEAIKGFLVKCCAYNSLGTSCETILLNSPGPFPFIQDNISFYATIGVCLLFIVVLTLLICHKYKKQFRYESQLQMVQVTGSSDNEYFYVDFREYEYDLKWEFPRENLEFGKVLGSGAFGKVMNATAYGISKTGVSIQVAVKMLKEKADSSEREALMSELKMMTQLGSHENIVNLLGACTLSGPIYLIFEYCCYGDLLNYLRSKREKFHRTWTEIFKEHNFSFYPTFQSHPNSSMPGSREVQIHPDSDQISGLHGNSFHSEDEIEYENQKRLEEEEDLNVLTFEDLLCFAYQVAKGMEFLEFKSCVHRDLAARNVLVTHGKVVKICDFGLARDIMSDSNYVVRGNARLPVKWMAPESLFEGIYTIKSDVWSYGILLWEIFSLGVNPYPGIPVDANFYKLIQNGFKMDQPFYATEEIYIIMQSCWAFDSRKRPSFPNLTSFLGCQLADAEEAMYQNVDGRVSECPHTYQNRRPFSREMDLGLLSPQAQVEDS", "experiment": "Kinase profiling (Kinase-Glo Plus or ADP-Glo)", "assay_type": "biochemical", "settings": "averages of two separate experiments", "description": "as §4, §5"}, "ABL2": {"molecular_target": "ABL2 (Homo sapiens, UniProt P42684)", "experiment": "Kinase profiling (Kinase-Glo Plus or ADP-Glo)", "assay_type": "biochemical", "settings": "averages of two separate experiments", "description": "as §4, §5"}, "c-KIT": {"molecular_target": "c-KIT (Homo sapiens, UniProt P10721)", "experiment": "Kinase profiling (Kinase-Glo Plus or ADP-Glo)", "assay_type": "biochemical", "settings": "averages of two separate experiments", "description": "as §4, §5"}, "CSF1R": {"molecular_target": "CSF1R (Homo sapiens, UniProt P07333)", "sequence (P07333 20-972)": "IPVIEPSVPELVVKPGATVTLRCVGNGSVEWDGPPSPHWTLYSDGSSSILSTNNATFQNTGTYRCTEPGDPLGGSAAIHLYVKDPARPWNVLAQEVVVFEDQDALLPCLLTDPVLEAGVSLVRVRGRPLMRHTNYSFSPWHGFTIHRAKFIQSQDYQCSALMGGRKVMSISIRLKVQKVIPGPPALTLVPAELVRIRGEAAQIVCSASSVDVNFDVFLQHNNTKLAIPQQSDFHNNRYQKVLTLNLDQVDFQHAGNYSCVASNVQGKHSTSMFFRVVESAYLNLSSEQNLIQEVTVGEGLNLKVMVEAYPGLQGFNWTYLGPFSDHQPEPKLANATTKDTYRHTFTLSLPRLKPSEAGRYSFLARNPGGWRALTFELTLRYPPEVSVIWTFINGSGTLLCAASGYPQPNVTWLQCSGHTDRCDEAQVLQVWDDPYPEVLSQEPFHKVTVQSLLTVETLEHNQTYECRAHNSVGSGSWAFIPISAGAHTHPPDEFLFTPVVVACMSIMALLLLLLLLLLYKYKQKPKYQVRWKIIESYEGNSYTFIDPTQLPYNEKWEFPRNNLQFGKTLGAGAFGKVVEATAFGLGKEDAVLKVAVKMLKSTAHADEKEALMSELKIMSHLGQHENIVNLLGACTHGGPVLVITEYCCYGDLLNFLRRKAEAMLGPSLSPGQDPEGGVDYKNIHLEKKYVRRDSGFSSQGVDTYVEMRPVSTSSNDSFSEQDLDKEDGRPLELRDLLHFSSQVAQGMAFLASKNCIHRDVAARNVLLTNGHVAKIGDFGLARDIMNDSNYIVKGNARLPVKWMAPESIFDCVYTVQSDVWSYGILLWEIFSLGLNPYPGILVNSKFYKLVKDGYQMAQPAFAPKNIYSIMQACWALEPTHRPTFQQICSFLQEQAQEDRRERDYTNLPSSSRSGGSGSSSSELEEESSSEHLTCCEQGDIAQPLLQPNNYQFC", "experiment": "Kinase profiling (Kinase-Glo Plus or ADP-Glo)", "assay_type": "biochemical", "settings": "averages of two separate experiments", "description": "as §4, §5"}, "EGFR": {"molecular_target": "EGFR (Homo sapiens, UniProt P00533)", "experiment": "Kinase profiling (Kinase-Glo Plus or ADP-Glo)", "assay_type": "biochemical", "settings": "averages of two separate experiments", "description": "as §4, §5"}}, "data": [{"smiles": "Cc1ccc(NC(=O)c2ccc(CN3CCN(C)CC3)cc2)cc1Oc1nccc(-c2cc3ccccc3o2)n1", "note": "[E5, N-(3-((4-(benzofuran-2-yl)pyrimidin-2-yl)oxy)-4-methylphenyl)-4-((4-methylpiperazin-1-yl)methyl)benzamide]", "values": [{"measurement": "IC50", "setting": "Bel7404 cells [1]; BEL-7404, 24 h", "result": "18.2 ± 2.38", "unit": "µM"}, {"measurement": "IC50", "setting": "Bel7404 cells [1]; BEL-7404, 48 h", "result": "9.68 ± 1.46", "unit": "µM"}, {"measurement": "IC50", "setting": "Bel7404 cells [1]; BEL-7404, 72 h", "result": "6.62 ± 0.15", "unit": "µM"}, {"measurement": "IC50", "setting": "HepG2 cells [2]; HepG2, 24 h, 24 h", "result": "8.49 ± 0.82", "unit": "µM"}, {"measurement": "IC50", "setting": "HepG2 cells [2]; HepG2, 48 h, 48 h", "result": "5.44 ± 0.23", "unit": "µM"}, {"measurement": "IC50", "setting": "HepG2 cells [2]; HepG2, 72 h, 72 h", "result": "4.72 ± 0.96", "unit": "µM"}, {"measurement": "Selectivity index", "setting": "PDGFRα; IC50 (PDGFRβ)/ IC50 (PDGFRα)", "result": 2.32}, {"measurement": "IC50", "setting": "PDGFRα; averages of two separate experiments", "result": 0.4, "unit": "µM"}, {"measurement": "inhibition at 1 µM", "setting": "PDGFRα; compound at 1 µM, averages of two separate experiments, read-out: Inhibition effect (%) PDGFRα", "result": "> 85", "unit": "%"}, {"measurement": "IC50", "setting": "PDGFRβ", "result": 0.93, "unit": "µM"}, {"measurement": "IC50 PDGFRβ", "setting": "PDGFRβ", "result": "moderate inhibitory activity"}, {"measurement": "inhibition at 1 µM", "setting": "PDGFRβ; compound at 1 µM, read-out: Inhibition effect (%) PDGFRβ", "result": "> 50", "unit": "%"}, {"measurement": "Effect on cell cycle distribution", "setting": "Bel7404 cells [3]", "result": "elicited G2/M phase arrest in a dose-dependent manner"}, {"measurement": "Effect on cell cycle distribution", "setting": "HepG2 cells [4]", "result": "elicited G2/M phase arrest in a dose-dependent manner"}, {"measurement": "IC50", "setting": "LCK", "result": "> 25", "unit": "µM"}, {"measurement": "IC50", "setting": "BLK", "result": "> 25", "unit": "µM"}, {"measurement": "IC50", "setting": "B-raf", "result": "> 25", "unit": "µM"}, {"measurement": "IC50", "setting": "ABL1", "result": 9.35, "unit": "µM"}, {"measurement": "IC50", "setting": "FGFR1", "result": "> 25", "unit": "µM"}, {"measurement": "IC50", "setting": "Raf-1", "result": "> 25", "unit": "µM"}, {"measurement": "IC50", "setting": "FGFR2", "result": "> 25", "unit": "µM"}, {"measurement": "IC50", "setting": "FLT3", "result": "> 25", "unit": "µM"}, {"measurement": "IC50 FLT3", "setting": "FLT3", "result": "no inhibition"}, {"measurement": "IC50", "setting": "ABL2", "result": 4.36, "unit": "µM"}, {"measurement": "IC50", "setting": "c-KIT", "result": 0.51, "unit": "µM"}, {"measurement": "IC50", "setting": "CSF1R", "result": 1.12, "unit": "µM"}, {"measurement": "IC50 CSF1R", "setting": "CSF1R", "result": "moderate inhibitory activity"}, {"measurement": "IC50", "setting": "EGFR", "result": "> 25", "unit": "µM"}]}]}
